A word on the pIC50: it is the negative decadic logarithm of the IC50, by convention in mol/L.

This is an account of results in patent publication US7304037B2, “Cytostatic conjugates with integrin ligands” (priority 2001, dated 2007).

The target of data set [1] is T1, αvβ3 receptor (αvβ3 from human A375 cells) (Homo sapiens, UniProt P05106+P06756).
T1 construct: αvβ3 from human A375 cells was purified analogously to a procedure described by Wong et al; endogenous in cells; host or cells: human A375 cells (endogenous receptor, detergent-solubilised and purified)
In words: αvβ3 binding test (echistatin displacement, SPA). The settings on record: read-out: IC50 values of the binding to the αVβ3 receptor. How it is done: αvβ3 from human A375 cells was purified analogously to a procedure described by Wong et al. in Molecular Pharmacology 50, 529–537 (1996). In each case, 10 μL of αvβ3 (5 ng) in TBS pH 7.6, 2 mM CaCl2, 1 mM MgCl2, 1% n-octylglucopyranoside (Sigma); 10 μL of test substance in TBS pH 7.6, 0.1% DMSO and 45 μL of TBS pH 7.6, 2 mM CaCl2, 1 mM MgCl2, 1 mM MnCl2 were incubated at room temperature for 1 h. In each case, 25 μL of WGA SPA beads (Amersham, 4 mg/ml) and 10 μL of echistatin (0.1 μCi, Amersham, chloramine-T labelled) were then added. After 16 h at room temperature, the samples were measured in a scintillation measuring apparatus (Wallac 1450).

Data set [2] concerns renal xenograft (RXF 944). The text has this: (§1) In all in-vivo experiments for investigating the inhibition of tumour growth, athymic nude mice (NMRI nu/nu strain) were used. The tumour was developed by serial passage in nude mice, The human origin of the tumour was confirmed by isoenzymatic and immunohistochemical methods.
(§2) The tumour was implanted subcutaneously in both flanks of nu/nu nude mice 6 to 8 weeks old. […] The mice were assigned to the treatment group or the control group (5 mice per group having 8 to 10 assessable tumours) by randomization.
(§3) The size of the tumours was measured in two dimensions by means of a slide gauge. The tumour volume which correlated well with the cell count, was then used for all assessments. The volume was calculated according to the formula “length×breadth×breadth/2” ([a×b^2]/2; a and b representing two diameters arranged at right angles).
(§4) The values of the relative tumour volume (RTV) were calculated for each individual tumour by dividing the tumour size on day X with the tumour size on day 0 (at the time of randomization). The average values of the RTV were then used for the further assessment.
(§5) The inhibition of the increase of the tumour volume (tumour volume of the test group/control group, T/C, in percent) was the final measured value.

Data set [3] deals with breast cancer model (MX-1).
Excerpt: as §1, §2, §3, §4, §5
The compounds are dissolved in 1% aqueous dextrose solution and administered intravenously from day 1–3 and day 15–17.

Data set [4] deals with hemopoietic stem cells (bone marrow cells). In words: cells. Format: cell-based, mice. How it is done:
Bone marrow cells are flushed out of the femur of mice. 10^5 cells are incubated in McCoy 5A medium (0.3% agar) together with recombinant murine GM-CSF (Genzyme; parent cell colony formation) and the substances (10^−4 to 100 μg/ml) at 37° C. and 7% CO2. 7 days later, the colonies (<50 cells) and clusters (17–50 cells) are counted.

The subject of data set [5] is melanoma xenograft (MEXF 989). Format: in vivo, athymic nude mice (NMRI nu/nu strain).
The test system of data set [6] is HT29 human large intestine cell line. It counts as cell-based. How it is done:
(§6) The human large intestine cell lines SW 480 and HT29 (ATCC No. CCL 228) and HTB38 and the mouse melanoma cell line B16F10 (CRL 6475) were grown to confluence in Roux dishes in seromed® RPMI 1640 medium (from Biochrom KG, Berlin) with addition of 10% FCS. They were then trypsinized and taken up in RPMI plus 10% FCS to a cell count of 50,000 cells or, for B16F10, 20,000 cells per mL. 100 μL of cell suspension per well were added to a 96 microwell plate and incubated at 37° C. for 1 day in a CO2 incubator. A further 100 μL of RPMI medium and 1 μL of DMSO were then added with the test substances. The growth was checked after day 6. For this purpose, 25 μL of MTT solution (3-(4,5-dimethylthiazol-2-yl)-2,5-diphenyltetrazolium bromide) were added to each well at a starting concentration of 5 mg/mL of water. The plate was incubated at 37° C. for 5 hours in a CO2 incubator. The medium was then aspirated and 100 1L of i-propanol/well were added. After shaking with 100 μL of water for 30 min, the extinction was measured at 595 nm using a Multiplate Reader (BIO-RAD 3550-UV).
(§7) The cytostatic action is indicated in Table 3 as an IC50 value, in each case for the individual cell lines.

Data set [7] deals with SW480 human large intestine cell line. Format: cell-based. How it is done: as §6, §7
The test system of data set [8] is B16F10 mouse melanoma cell line. It counts as cell-based. The method, then: as §6, §7
Setting [9] is: RXF 944, 6 mg/kg/day intravenously day 1–3 and day 15–17.
The mark [10] stands for this setting: MX-1, 6 mg/kg/day intravenously day 1–3 and day 15–17.
The mark [11] stands for this setting: MEXF 989, 6 mg/kg/day intravenously day 1–3 and day 15–17.

The structures appear in SMILES notation. pIC50: −log10 of the molar value.

T1 sequence (P06756 31-889 limits assumed): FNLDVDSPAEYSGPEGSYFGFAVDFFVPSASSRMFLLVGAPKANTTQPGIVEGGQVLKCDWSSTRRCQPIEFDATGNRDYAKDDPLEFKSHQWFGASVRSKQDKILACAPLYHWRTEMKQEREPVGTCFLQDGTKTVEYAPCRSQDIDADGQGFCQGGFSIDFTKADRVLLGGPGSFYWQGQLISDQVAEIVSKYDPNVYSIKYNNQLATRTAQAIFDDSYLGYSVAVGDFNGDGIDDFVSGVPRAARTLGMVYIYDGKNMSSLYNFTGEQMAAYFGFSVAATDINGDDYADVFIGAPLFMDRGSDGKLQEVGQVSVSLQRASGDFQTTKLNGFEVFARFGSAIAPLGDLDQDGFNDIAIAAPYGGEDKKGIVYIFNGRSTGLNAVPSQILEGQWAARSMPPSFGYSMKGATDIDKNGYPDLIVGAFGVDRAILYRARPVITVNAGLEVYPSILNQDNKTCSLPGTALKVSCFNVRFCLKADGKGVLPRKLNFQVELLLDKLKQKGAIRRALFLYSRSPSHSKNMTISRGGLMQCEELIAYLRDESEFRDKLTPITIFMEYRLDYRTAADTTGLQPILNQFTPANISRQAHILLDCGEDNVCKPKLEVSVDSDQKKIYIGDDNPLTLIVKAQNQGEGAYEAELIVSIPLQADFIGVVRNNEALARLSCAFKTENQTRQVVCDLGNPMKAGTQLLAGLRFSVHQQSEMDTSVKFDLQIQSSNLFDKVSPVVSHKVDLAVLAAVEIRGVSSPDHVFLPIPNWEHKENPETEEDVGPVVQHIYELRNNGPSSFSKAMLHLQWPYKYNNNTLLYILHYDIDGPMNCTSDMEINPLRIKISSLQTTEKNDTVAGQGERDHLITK
T1 sequence (P06756 891-1048 partner limits assumed): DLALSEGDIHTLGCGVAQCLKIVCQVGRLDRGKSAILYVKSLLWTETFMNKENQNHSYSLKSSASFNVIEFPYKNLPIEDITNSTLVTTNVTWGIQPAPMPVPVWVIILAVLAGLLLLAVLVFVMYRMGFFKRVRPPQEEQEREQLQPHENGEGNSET
T1 sequence (P05106 27-788): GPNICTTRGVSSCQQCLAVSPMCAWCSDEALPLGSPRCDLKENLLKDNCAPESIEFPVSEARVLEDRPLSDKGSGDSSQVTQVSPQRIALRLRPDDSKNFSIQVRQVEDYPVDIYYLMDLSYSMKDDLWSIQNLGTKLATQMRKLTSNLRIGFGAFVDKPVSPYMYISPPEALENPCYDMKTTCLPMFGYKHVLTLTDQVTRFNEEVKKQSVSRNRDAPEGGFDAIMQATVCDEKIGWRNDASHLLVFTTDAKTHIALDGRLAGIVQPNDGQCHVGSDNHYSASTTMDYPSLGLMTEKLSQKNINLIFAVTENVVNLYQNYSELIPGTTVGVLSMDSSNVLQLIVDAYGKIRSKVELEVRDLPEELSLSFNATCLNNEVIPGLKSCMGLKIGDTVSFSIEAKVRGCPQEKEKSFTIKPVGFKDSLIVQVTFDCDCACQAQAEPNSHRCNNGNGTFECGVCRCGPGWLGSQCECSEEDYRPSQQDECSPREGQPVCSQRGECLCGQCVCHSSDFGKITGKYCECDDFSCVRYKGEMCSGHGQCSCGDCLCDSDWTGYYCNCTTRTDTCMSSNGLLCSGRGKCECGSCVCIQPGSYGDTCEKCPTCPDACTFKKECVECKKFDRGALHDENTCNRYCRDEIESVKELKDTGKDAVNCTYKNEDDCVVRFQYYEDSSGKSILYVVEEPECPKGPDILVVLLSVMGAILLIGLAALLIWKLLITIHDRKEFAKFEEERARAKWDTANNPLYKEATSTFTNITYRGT

As to `CCCNC(=O)Nc1cccc(S(=O)(=O)Nc2cccc(C(CC(=O)O)NC(=O)Nc3ccc(NC(=S)N[C@@H](C)C(=O)N4CCC[C@H]4C(=O)N[C@H](C(=O)O[C@]4(CC)C(=O)OCc5c4cc4n(c5=O)Cc5cc6ccccc6nc5-4)C(C)C)cc3)c2)c1` (single isomer, unassigned) [Example 3], the pIC50 in data set [1] is 7.82; in data set [6], 6.82; in data set [7], 6.30; in data set [8] it was 6.15. Moreover, the lethality in data set [2] (setting [9]) is 1/7; in data set [3] (setting [10]) it was 0/5; in data set [5] (setting [11]), 0/5. Further, the entries for the “optimal T/C” value in data set [2] (setting [9]), in data set [3] (setting [10]) and in data set [5] (setting [11]) were 24.0%, 12.4% and 10.3%, respectively. In addition, the “inhibition of the tumour growth (in words)” value in data set [2] (RXF 944, intravenously day 1–3 and day 15–17) is recorded as “effected inhibitions of the tumour growth”; in data set [3] (MX-1, intravenously day 1–3 and day 15–17), “effected inhibitions of the tumour growth”; in data set [5] (MEXF 989, intravenously day 1–3 and day 15–17) it was “effected inhibitions of the tumour growth”. In data set [4], the “toxicity against stem cells in vitro compared to camptothecin (in words)” value is given as “drastically reduced toxicity against stem cells in vitro compared to camptothecin”.
